Results reported in patent publication US5589467A, “2,5',N6-trisubstituted adenosine derivatives” (Novo Nordisk A/S, priority 1993, dated 1996).
Read-outs that look alike come from different tables or passages of the source.

Assays:
[1] = DMCM-induced seizures in vivo; settings: read-out: DMCM-ind. seizures (ED50, mg/kg)
Source text: (§1) The methods both for the above in vitro examination of the compounds and the method used for DMCM-induced seizures in vivo are summarized in the European Journal of Pharmacology, 1993, 224, 221-228.

A1 receptor = settings: literature, qualitative; cited from earlier work
adenosine A1 receptor = target: T1, adenosine A1 receptor (Rattus norvegicus, UniProt P25099); experiment: in vitro binding to adenosine A1 receptor ([3H]-R-PIA); settings: for Ki: radioligand [3H]-R-PIA; for Ratio A2/A1: ratio of A2 to A1 receptor binding Ki
T1 construct: from tissue
T1 sequence (P25099 1-326): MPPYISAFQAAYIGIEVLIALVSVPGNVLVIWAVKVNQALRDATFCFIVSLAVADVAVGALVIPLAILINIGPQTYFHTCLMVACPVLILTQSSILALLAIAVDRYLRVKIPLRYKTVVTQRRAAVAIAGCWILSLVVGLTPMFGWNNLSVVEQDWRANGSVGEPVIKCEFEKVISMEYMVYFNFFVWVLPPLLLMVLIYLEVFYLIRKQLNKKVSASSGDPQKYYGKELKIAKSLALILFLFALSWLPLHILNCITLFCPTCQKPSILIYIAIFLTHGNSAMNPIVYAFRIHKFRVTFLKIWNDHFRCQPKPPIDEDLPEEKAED
Source text: (§2) Evaluation of in vitro binding to adenosine A1 and A2 receptors.
as §1

adenosine A2 receptor = target: T2, adenosine A2 receptor (Rattus norvegicus, UniProt P30543); experiment: in vitro binding to adenosine A2 receptor ([3H]-CGS 21680)
T2 construct: from tissue
Source text: as §2, §1

[2] = radioligand [3H]-CGS 21680, read-out: A2 Receptor Binding (Ki)
[3] = ED50, DMCM-induced seizures in vivo

T2 sequence (P30543 whole entry): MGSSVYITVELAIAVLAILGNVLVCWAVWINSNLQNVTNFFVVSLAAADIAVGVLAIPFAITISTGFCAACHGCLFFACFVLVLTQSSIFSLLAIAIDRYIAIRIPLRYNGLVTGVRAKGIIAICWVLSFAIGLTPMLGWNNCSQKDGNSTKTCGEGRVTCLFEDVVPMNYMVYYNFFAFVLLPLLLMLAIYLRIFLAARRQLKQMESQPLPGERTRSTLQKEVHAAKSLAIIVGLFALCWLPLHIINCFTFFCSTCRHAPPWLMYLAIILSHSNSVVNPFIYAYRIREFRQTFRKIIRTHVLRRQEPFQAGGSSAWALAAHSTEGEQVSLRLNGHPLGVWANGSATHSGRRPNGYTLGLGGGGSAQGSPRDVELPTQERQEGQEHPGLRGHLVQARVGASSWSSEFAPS

C[C@H](Cc1ccccc1)Nc1ncnc2c1ncn2[C@@H]1O[C@H](CO)[C@@H](O)[C@H]1O [R-PIA, (R)-N-(1-phenyl-2-propyl)adenosine, reference compound]
ED50 [1]: 0.5 mg/kg

OC[C@H]1O[C@@H](n2cnc3c(NC4CCCC4)nc(Cl)nc32)[C@H](O)[C@@H]1O [CCPA, 2-chloro-N-cyclopentyladenosine]
selectivity for the A1 receptor over the A2 receptor (in words) (A1 receptor): most selective for the A1 receptor over the A2 receptor

O[C@@H]1[C@H](O)[C@@H](CCl)O[C@H]1n1cnc2c(NN3CCCCC3)nc(Cl)nc21 [Example 1, 2,5'-Dichloro-5'-deoxy-N-(1-piperidinyl)adenosine]
Ki (adenosine A1 receptor): 6.4 nM | Ratio A2/A1 (adenosine A1 receptor): 428 | Ki (adenosine A2 receptor; [2]): 2740 nM | ED50 [1, 3]: 0.4 mg/kg

OC[C@H]1O[C@@H](n2cnc3c(NC4CCCC4)ncnc32)[C@H](O)[C@@H]1O [CPA, N-(cyclopentyl)adenosine, reference compound]
Ki (adenosine A2 receptor): 192 nM | ED50 [1]: 0.2 mg/kg

CN(C)Nc1nc(Cl)nc2c1ncn2[C@@H]1O[C@H](CCl)[C@@H](O)[C@H]1O [Example 11, 2,5'-Dichloro-5'-deoxy-N-(dimethylamino)adenosine]
Ki (adenosine A1 receptor): 11 nM | Ratio A2/A1 (adenosine A1 receptor): 600 | Ki (adenosine A2 receptor; [2]): 6600 nM | ED50 [1, 3]: 4.7 mg/kg

CONc1nc(Cl)nc2c1ncn2[C@@H]1O[C@H](CCl)[C@@H](O)[C@H]1O [Example 12, 2,5'-Dichloro-5'-deoxy-N-methoxyadenosine]
Ki (adenosine A1 receptor): 74 nM | Ratio A2/A1 (adenosine A1 receptor): 63 | Ki (adenosine A2 receptor; [2]): 4660 nM | ED50 [1, 3]: 6.1 mg/kg

O[C@@H]1[C@H](O)[C@@H](CF)O[C@H]1n1cnc2c(NN3CCCCC3)nc(Cl)nc21 [Example 18, 2-Chloro-5'-deoxy-5'-fluoro-N-(1-piperidinyl)adenosine]
Ki (adenosine A1 receptor): 5.3 nM | Ratio A2/A1 (adenosine A1 receptor): 457 | Ki (adenosine A2 receptor; [2]): 2420 nM | ED50 [1, 3]: 1 mg/kg
